# Measured values published in patent publication US12509431B2, “1,4-dihydroquinazolinone compounds and uses thereof” (Edgewise Therapeutics, Inc., priority 2022, dated 2025).
# Where two headings read alike, the source gives them in different places.
# What was measured:
# [1] = system: Rabbit Skeletal myofibrils (rabbit psoas muscle); experiment: Myofibril ATPase assay (PK/LDH NADH-coupled), skeletal myofibrils; type: biochemical
# Method in brief: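 Rabbit psoas myofibrils in pCa (PIPES/CaCl2/EGTA, pH 7.0) buffer; ADP coupled via PK/LDH to NADH loss, read at 340 nm every 1.5–2 min for 75 min. Slopes normalized to vehicle (100%) and fit to 4-parameter logistic for EC25, plus EC50 for inhibitors.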
# [2] = molecular target: T1, Porcine Ventricle myofibrils (left ventricle of Yucatan minipigs) (Sus scrofa, UniProt P79293); experiment: Myofibril ATPase assay (PK/LDH NADH-coupled), ventricle myofibrils; type: biochemical
# T1 construct: Myofibrils from porcine cardiac muscle was isolated from the left ventricle of Yucatan minipigs; tissue Exemplar Genetics; host or cells: left ventricle of Yucatan minipigs
# T1 sequence (P79293 whole entry): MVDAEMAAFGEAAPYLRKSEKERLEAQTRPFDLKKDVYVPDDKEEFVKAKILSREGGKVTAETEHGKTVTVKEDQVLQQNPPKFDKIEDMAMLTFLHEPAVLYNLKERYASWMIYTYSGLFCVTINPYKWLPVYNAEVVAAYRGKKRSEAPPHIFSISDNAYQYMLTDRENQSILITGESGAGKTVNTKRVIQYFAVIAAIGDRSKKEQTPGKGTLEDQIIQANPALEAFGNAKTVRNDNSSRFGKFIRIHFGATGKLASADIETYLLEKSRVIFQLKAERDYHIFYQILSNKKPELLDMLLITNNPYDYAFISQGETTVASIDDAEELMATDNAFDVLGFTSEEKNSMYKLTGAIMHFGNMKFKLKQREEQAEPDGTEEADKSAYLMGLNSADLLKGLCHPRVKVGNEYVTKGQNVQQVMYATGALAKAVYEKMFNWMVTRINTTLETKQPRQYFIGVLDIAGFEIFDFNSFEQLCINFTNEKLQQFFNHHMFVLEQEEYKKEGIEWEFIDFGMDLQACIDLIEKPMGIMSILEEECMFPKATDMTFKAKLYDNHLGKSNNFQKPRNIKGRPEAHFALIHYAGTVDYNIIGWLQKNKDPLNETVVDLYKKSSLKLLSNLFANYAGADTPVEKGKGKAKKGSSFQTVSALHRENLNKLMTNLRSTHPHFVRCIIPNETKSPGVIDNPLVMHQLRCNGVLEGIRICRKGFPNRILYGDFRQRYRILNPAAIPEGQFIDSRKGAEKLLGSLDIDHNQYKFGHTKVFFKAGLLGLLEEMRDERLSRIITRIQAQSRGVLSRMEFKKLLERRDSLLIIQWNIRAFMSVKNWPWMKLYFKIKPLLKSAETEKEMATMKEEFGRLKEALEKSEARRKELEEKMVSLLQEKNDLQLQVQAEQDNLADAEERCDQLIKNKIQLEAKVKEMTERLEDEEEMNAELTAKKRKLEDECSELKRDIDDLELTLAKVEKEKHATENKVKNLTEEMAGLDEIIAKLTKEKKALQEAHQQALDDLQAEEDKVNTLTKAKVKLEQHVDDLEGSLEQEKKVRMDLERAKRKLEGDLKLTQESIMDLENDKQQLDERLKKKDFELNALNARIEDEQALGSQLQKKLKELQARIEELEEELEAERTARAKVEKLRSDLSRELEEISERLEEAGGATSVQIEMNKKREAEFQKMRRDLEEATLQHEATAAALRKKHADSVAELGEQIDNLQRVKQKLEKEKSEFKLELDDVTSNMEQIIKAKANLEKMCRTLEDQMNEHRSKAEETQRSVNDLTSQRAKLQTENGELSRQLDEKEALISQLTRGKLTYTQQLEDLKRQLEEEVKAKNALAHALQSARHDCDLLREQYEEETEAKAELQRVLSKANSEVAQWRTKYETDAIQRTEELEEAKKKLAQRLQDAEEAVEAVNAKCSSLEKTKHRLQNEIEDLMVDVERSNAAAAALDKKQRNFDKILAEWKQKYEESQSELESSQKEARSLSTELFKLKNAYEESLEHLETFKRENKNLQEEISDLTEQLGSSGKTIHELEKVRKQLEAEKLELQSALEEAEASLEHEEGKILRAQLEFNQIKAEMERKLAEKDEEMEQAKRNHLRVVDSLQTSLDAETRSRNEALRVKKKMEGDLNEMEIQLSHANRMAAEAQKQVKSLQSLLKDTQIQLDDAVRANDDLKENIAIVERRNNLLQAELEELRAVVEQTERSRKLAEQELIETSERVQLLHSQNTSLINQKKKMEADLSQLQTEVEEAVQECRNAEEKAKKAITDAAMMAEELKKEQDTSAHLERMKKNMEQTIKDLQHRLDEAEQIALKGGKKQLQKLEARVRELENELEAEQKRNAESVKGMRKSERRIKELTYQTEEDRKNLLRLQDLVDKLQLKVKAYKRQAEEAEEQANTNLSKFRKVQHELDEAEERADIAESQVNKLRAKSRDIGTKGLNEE
# Method in brief: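 Yucatan minipig left-ventricle myofibrils; ATPase measured by PK/LDH-coupled NADH loss at 340 nm, read every 1.5-2 min for 75 min. Slopes normalized to vehicle (100%) and fit to 4-parameter logistic model; EC25 and, for inhibitors, EC50 calculated.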
# [3] = system: isoflurane-anesthetized SD rats; experiment: In vivo echocardiography of systolic cardiac performance (FS, SWT, HR, LV volumes) after a single oral dose; settings: Rattus norvegicus, single dose 10 mg/kg PO, ~2 hrs post-dosing, vs. vehicle
# Experimental: Experiments were performed to evaluate the in vivo ability of the compounds of the disclosure to modulate systolic cardiac performance. Non-invasively echocardiography was used to assess cardiac indicators in isoflurane-anesthetized SD rats. A set of conscious rats were treated with either vehicle control (0 mg/kg PO; n=78) or a single dose of an test compound (10 mg/kg PO, n=2 to 6/compound) via oral gavage. Cardiac function/geometry were recorded at two separate time-points/days: once prior to dosing (i.e., at baseline, day −2) and at ˜2 hrs post-dosing (day 0).
# In these experiments, heart rate (HR), echocardiography-derived indices of left-ventricular systolic performance, as well as dimensions/volumes were measured using a high-frequency transducer and parastemnal long-axis transthoracic views (Vevo3100, VisualSonic). LV fractional shortening (FS), an index of systolic function, was defined as the end-diastole normalized change in internal dimensions divided by the […] (LVid) of the left ventricle between end-systole (LVids) and end-diastole (LVidd) (i.e., FS=100·[LVidd−LVids]/LVidd). LV volumes were derived using the Teichholz formula (LVV=7·LVid^3/[2.4+LVid]). In addition, a systolic wall-thickening index (SWT) was also evaluated. SWT is defined as the relative ratio (end-diastole normalized) of left-ventricular (anterior and posterior) wall-thickness change during systole; i.e., SWT=I{[(anterior LV wall thickness in systole−anterior LV wall thickness in diastole)][…][(posterior LV wall thickness in systole−posterior LV wall thickness in diastole)]}/{2*diastolic thickness}. In all cases, blood samples were taken (via either tail-vein micro-sampling or cardiac-puncture) at the time of each echocardiographic examination in order to establish pharmacokinetic (PK)/pharmacodynamics (PD) relationships.
# Porcine Atria myofibrils = experiment: Myofibril ATPase assay (PK/LDH NADH-coupled), atria myofibrils; type: biochemical
# Method in brief: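 Porcine atrial myofibril ATPase followed via PK/LDH-coupled NADH depletion, absorbance at 340 nm read every 1.5-2 min over 75 min. Slopes (mAU/min) normalized to vehicle as 100% and fit to a 4-parameter logistic; EC25% derived, plus EC50% for inhibitors.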
# myosin+native RLC = molecular target: T2, myosin+native RLC (Sus scrofa, UniProt P79293); experiment: NADH-coupled actin-activated ATPase assay, myosin + native RLC; type: biochemical; settings: 1 μM myosin, rabbit skeletal actin, 25° C., 1% DMSO
# T2 construct: Full-length myosin was resuspended to 1 mg/mL
# T2 sequence (P79293 whole entry): as above
# Experimental: (§1) Full-length myosin was resuspended to 1 mg/mL in a buffer containing 500 mM KCl, 10 mM KPi, 15 mM CDTA, pH 8.5. Triton-X was then added to a final concentration of […], and the suspension was agitated for 15 minutes at room temperature to selectively remove the regulatory light chain (RLC). RLC-removed myosin was then precipitated and collected and resuspended in a buffer containing 400 mM KCl, 50 mM Mops, pH 7, 2 mM MgCl2, and 1 mM DTT. Recombinantly expressed and purified human ventricle RLC was added in a 3-fold molar excess to myosin and incubated on ice for 2 hours to allow for reassociation of the RLC onto myosin. Triton (0.1%) was added to the reaction to prevent any non-specific binding events. RLC-exchanged myosin was then precipitated and collected and resuspended in a buffer containing 12 mM PIPES, pH 6.8, […], 2 mM MgCl2, and 1 mM DTT. RLC removal and exchange were confirmed by SDS-PAGE and proteins were visualized using coomassie stain.
# (§2) Myosin was resuspended in buffer A (f.c.=12 mM PIPES, pH 6.8, 30 mM KCl, 2 mM MgCl2, 1 mM DTT, 0.1 mg/mL BSA, 0.01% (v/v) Antifoam 204, and 0.6% (v/v) PK/LDH (final reaction contains ≥3.6 U/mL PK and >5.4 U/mL LDH)) at final concentrations of 1 μM for myosin+native RLC and 2 μM for myosin+removed RLC and myosin+human ventricle RLC. Buffer A was then mixed with an equal volume of buffer B (f.c.=12 mM PIPES, pH 6.8, 30 mM KCl, 2 mM MgCl2, 1 mM DTT, 0.1 mg/mL BSA, 0.01% (v/v) Antifoam 204, 0.5 mM NADH, 1.5 mM phosphoenolpyruvate, 1 mM ATP, and 0.3 mg/mL filamentous rabbit skeletal actin) in a 384-well plate. Dose-dependent compound effects were assessed by adding the compounds at varying concentrations between 100 μM and 2 nM, all with a constant final DMSO concentration of 1% v/v. The reactions were run at a constant temperature of 25° C. in the plate reader to monitor the change in A340 over time. Measurements were taken every 90 sec for 75 min to generate raw time-domain absorbance data, which was processed to normalized reaction rates. Normalized enzymatic rates were calculated, using rates observed in 1% (v/v) in DMSO as 100% and 0 slope as 0%. Compound-specific activity curves were generated by plotting the normalized rates versus compound concentration and fitting the data to a 4-parameter logistic model. In addition to the fit parameters, the IC25% was calculated, relative to the 100% normalized value.
# myosin+removed RLC = molecular target: T3, myosin+removed RLC (Sus scrofa, UniProt P79293); experiment: NADH-coupled actin-activated ATPase assay, myosin + removed RLC; type: biochemical; settings: 2 μM myosin, rabbit skeletal actin, 25° C., 1% DMSO
# T3 construct: Full-length myosin was resuspended to 1 mg/mL
# T3 sequence (P79293 whole entry): as above
# Experimental: as §1, §2
# [4] = molecular target: T4, myosin+human ventricle RLC (Sus scrofa, UniProt P79293); experiment: NADH-coupled actin-activated ATPase assay, myosin + human ventricle RLC; type: biochemical; settings: 2 μM myosin, rabbit skeletal actin, 25° C., 1% DMSO
# T4 construct: Full-length myosin was resuspended to 1 mg/mL
# T4 sequence (P79293 whole entry): as above
# Experimental: as §1, §2
# [5] = EDV (LV volume, Teichholz formula), read-out: EDV % vs. VEH
# [6] = LV fractional shortening, read-out: FS % vs. VEH
# [7] = heart rate, read-out: HR % vs. VEH
# [8] = systolic wall-thickening index, read-out: SWT % vs. VEH
SMILES,Rabbit Psoas IC25 ([1]; Table 8) [nM],Porcine Ventricle IC25 ([2]; Table 8) [nM],"change in vivo at 10 mg/kg [3, 5] [%]","change in vivo at 10 mg/kg [3, 6] [%]","change in vivo at 10 mg/kg [3, 7] [%]","change in vivo at 10 mg/kg [3, 8] [%]",Porcine Atria IC25 (Porcine Atria myofibrils; Table 8) [nM],"Potency, Full-length myosin + native porcine ventricle RLC (myosin+native RLC) [nM]","Potency, Full-length myosin + RLC removed (myosin+removed RLC) [nM]","Potency, Full-length myosin + exchanged human ventricle RLC [4] [nM]",Rabbit Psoas IC25 ([1]; Table 7) [nM],Porcine Ventricle IC25 ([2]; Table 7) [nM],Porcine Atria IC25 (Porcine Atria myofibrils; Table 7) [nM]
"Cc1nc(C#N)cnc1C(C)NC(=O)CN1Cc2c(ccc(F)c2F)NC1=O (single isomer, unassigned) [Compound B55]",11.4,53.3,70,-36,-5,10,50,–,–,–,–,–,–
C[C@H](NC(=O)CN1Cc2c(ccc(F)c2F)NC1=O)c1ncc(C#N)cc1F [Compound B142],21.68,54.34,21,-81,6,-78,40,–,–,–,–,–,–
N#Cc1c(F)ccc2c1CN(CC(=O)N[C@@H](CO)c1ccc(F)cc1F)C(=O)N2 [Compound B152],39.53,294.6,-6,6,1,-2,170,–,–,–,–,–,–
C[C@H](NC(=O)CN1Cc2cc(F)ccc2NC1=O)c1ccc(C#N)cn1 [Compound B172],2013,20930,–,–,–,–,2940,12320,>100000,14390,–,–,–
O=C(CN1Cc2cc(F)ccc2NC1=O)N[C@@H](CO)c1ncc(F)cc1F [Compound B181],242,1905,-6,-13,8,-5,130,–,–,–,–,–,–
C[C@H](NC(=O)C1(N2Cc3c(ccc(F)c3F)NC2=O)CC1)c1ncc(C#N)cc1F [Compound B269],60,150,–,–,–,–,60,590,>100000,490,–,–,–
C[C@@H](NC(=O)CN1Cc2cc(F)c(F)cc2NC1=O)c1ncc(C#N)cc1F [Compound B357],50290,100000,5,-8,-5,-5,1560,–,–,–,–,–,–
[2H]C1([2H])c2c(ccc(F)c2F)NC(=O)N1CC(=O)N[C@@H](C)c1ncc(C#N)cc1F [Compound B366],50,770,82,-71,-2,-41,70,–,–,–,–,–,–
[2H]C1([2H])c2c(ccc(F)c2F)NC(=O)N1CC(=O)N[C@H](C)c1ncc(C#N)cc1F [Compound B367],780,550,-6,-31,10,-32,320,–,–,–,–,–,–
C[C@H](NC(=O)CN1C(=O)Nc2cccnc2C12CC2)c1ncc(C#N)cc1F [Compound N26],–,–,–,–,–,–,–,2170,>100000,1920,47.64,1309,150
